Results taken from BigSolDB 2.1.

CC1=NN(c2ccc(C)cc2)C(=O)C1
Details	solubility (mole fraction)
in 1,4-dioxane, 283.15 K	0.0337
in 1,4-dioxane, 285.65 K	0.0367
in 1,4-dioxane, 288.15 K	0.0399
in 1,4-dioxane, 290.65 K	0.0432
in 1,4-dioxane, 293.15 K	0.047
in 1,4-dioxane, 295.65 K	0.0507
in 1,4-dioxane, 298.15 K	0.0549
in 1,4-dioxane, 300.65 K	0.0591
in 1,4-dioxane, 303.15 K	0.0638
in 1,4-dioxane, 305.65 K	0.0683
in 1,4-dioxane, 308.15 K	0.0737
in 1,4-dioxane, 310.65 K	0.0791
in 1,4-dioxane, 313.15 K	0.0849
in acetonitrile, 278.15 K	0.00534
in acetonitrile, 280.65 K	0.00596
in acetonitrile, 283.15 K	0.00668
in acetonitrile, 285.65 K	0.00746
in acetonitrile, 288.15 K	0.0083
in acetonitrile, 290.65 K	0.00927
in acetonitrile, 293.15 K	0.0104
in acetonitrile, 295.65 K	0.0115
in acetonitrile, 298.15 K	0.0128
in acetonitrile, 300.65 K	0.0142
in acetonitrile, 303.15 K	0.0157
in acetonitrile, 305.65 K	0.0173
in acetonitrile, 308.15 K	0.0192
in acetonitrile, 310.65 K	0.0213
in acetonitrile, 313.15 K	0.0235
in cyclohexane, 283.15 K	0.000488
in cyclohexane, 285.65 K	0.000558
in cyclohexane, 288.15 K	0.000626
in cyclohexane, 290.65 K	0.000714
in cyclohexane, 293.15 K	0.000802
in cyclohexane, 295.65 K	0.000902
in cyclohexane, 298.15 K	0.00102
in cyclohexane, 300.65 K	0.00114
in cyclohexane, 303.15 K	0.00128
in cyclohexane, 305.65 K	0.00142
in cyclohexane, 308.15 K	0.00161
in cyclohexane, 310.65 K	0.00179
in cyclohexane, 313.15 K	0.002
in ethanol, 278.15 K	0.0146
in ethanol, 280.65 K	0.0161
in ethanol, 283.15 K	0.0176
in ethanol, 285.65 K	0.0191
in ethanol, 288.15 K	0.0209
in ethanol, 290.65 K	0.0229
in ethanol, 293.15 K	0.0248
in ethanol, 295.65 K	0.027
in ethanol, 298.15 K	0.0294
in ethanol, 300.65 K	0.0319
in ethanol, 303.15 K	0.0345
in ethanol, 305.65 K	0.0372
in ethanol, 308.15 K	0.0403
in ethanol, 310.65 K	0.0436
in ethanol, 313.15 K	0.0471
in ethyl acetate, 278.15 K	0.0171
in ethyl acetate, 280.65 K	0.0188
in ethyl acetate, 283.15 K	0.0207
in ethyl acetate, 285.65 K	0.0226
in ethyl acetate, 288.15 K	0.0247
in ethyl acetate, 290.65 K	0.0271
in ethyl acetate, 293.15 K	0.0294
in ethyl acetate, 295.65 K	0.032
in ethyl acetate, 298.15 K	0.0349
in ethyl acetate, 300.65 K	0.0378
in ethyl acetate, 303.15 K	0.041
in ethyl acetate, 305.65 K	0.0444
in ethyl acetate, 308.15 K	0.0481
in ethyl acetate, 310.65 K	0.052
in ethyl acetate, 313.15 K	0.0562
in ethylbenzene, 278.15 K	0.0109
in ethylbenzene, 280.65 K	0.012
in ethylbenzene, 283.15 K	0.0132
in ethylbenzene, 285.65 K	0.0146
in ethylbenzene, 288.15 K	0.016
in ethylbenzene, 290.65 K	0.0175
in ethylbenzene, 293.15 K	0.0193
in ethylbenzene, 295.65 K	0.0211
in ethylbenzene, 298.15 K	0.0231
in ethylbenzene, 300.65 K	0.0253
in ethylbenzene, 303.15 K	0.0276
in ethylbenzene, 305.65 K	0.0301
in ethylbenzene, 308.15 K	0.0327
in ethylbenzene, 310.65 K	0.0356
in ethylbenzene, 313.15 K	0.0387
in isopentanol, 278.15 K	0.0303
in isopentanol, 280.65 K	0.0335
in isopentanol, 283.15 K	0.037
in isopentanol, 285.65 K	0.041
in isopentanol, 288.15 K	0.0449
in isopentanol, 290.65 K	0.0492
in isopentanol, 293.15 K	0.0542
in isopentanol, 295.65 K	0.0593
in isopentanol, 298.15 K	0.0646
in isopentanol, 300.65 K	0.0705
in isopentanol, 303.15 K	0.0769
in isopentanol, 305.65 K	0.0835
in isopentanol, 308.15 K	0.0906
in isopentanol, 310.65 K	0.0982
in isopentanol, 313.15 K	0.106
in isopropanol, 278.15 K	0.0116
in isopropanol, 280.65 K	0.0127
in isopropanol, 283.15 K	0.014
in isopropanol, 285.65 K	0.0153
in isopropanol, 288.15 K	0.0168
in isopropanol, 290.65 K	0.0184
in isopropanol, 293.15 K	0.02
in isopropanol, 295.65 K	0.0218
in isopropanol, 298.15 K	0.0238
in isopropanol, 300.65 K	0.0259
in isopropanol, 303.15 K	0.0281
in isopropanol, 305.65 K	0.0305
in isopropanol, 308.15 K	0.033
in isopropanol, 310.65 K	0.0358
in isopropanol, 313.15 K	0.0387
in methanol, 278.15 K	0.0152
in methanol, 280.65 K	0.0168
in methanol, 283.15 K	0.0183
in methanol, 285.65 K	0.02
in methanol, 288.15 K	0.0221
in methanol, 290.65 K	0.024
in methanol, 293.15 K	0.0262
in methanol, 295.65 K	0.0287
in methanol, 298.15 K	0.0312
in methanol, 300.65 K	0.034
in methanol, 303.15 K	0.0367
in methanol, 305.65 K	0.0398
in methanol, 308.15 K	0.0432
in methanol, 310.65 K	0.0468
in methanol, 313.15 K	0.0506
in n-butanol, 278.15 K	0.0188
in n-butanol, 280.65 K	0.0206
in n-butanol, 283.15 K	0.0226
in n-butanol, 285.65 K	0.0247
in n-butanol, 288.15 K	0.0271
in n-butanol, 290.65 K	0.0294
in n-butanol, 293.15 K	0.032
in n-butanol, 295.65 K	0.0349
in n-butanol, 298.15 K	0.0377
in n-butanol, 300.65 K	0.041
in n-butanol, 303.15 K	0.0444
in n-butanol, 308.15 K	0.0518
in n-butanol, 310.65 K	0.056
in n-butanol, 313.15 K	0.0603
in n-propanol, 278.15 K	0.0177
in n-propanol, 280.65 K	0.0194
in n-propanol, 283.15 K	0.0213
in n-propanol, 285.65 K	0.0232
in n-propanol, 288.15 K	0.0254
in n-propanol, 290.65 K	0.0276
in n-propanol, 293.15 K	0.0301
in n-propanol, 295.65 K	0.0326
in n-propanol, 298.15 K	0.0353
in n-propanol, 300.65 K	0.0384
in n-propanol, 303.15 K	0.0414
in n-propanol, 305.65 K	0.0448
in n-propanol, 308.15 K	0.0483
in n-propanol, 310.65 K	0.0522
in n-propanol, 313.15 K	0.0561
in toluene, 278.15 K	0.00985
in toluene, 280.65 K	0.0109
in toluene, 283.15 K	0.012
in toluene, 285.65 K	0.0133
in toluene, 288.15 K	0.0147
in toluene, 290.65 K	0.0161
in toluene, 293.15 K	0.0176
in toluene, 295.65 K	0.0193
in toluene, 298.15 K	0.021
in toluene, 300.65 K	0.023
in toluene, 303.15 K	0.025
in toluene, 305.65 K	0.0273
in toluene, 308.15 K	0.0298
in toluene, 310.65 K	0.0323
in toluene, 313.15 K	0.0351
